Experimental data reported in patent US8952024B2, “Herbicidal pyrimidone derivatives” (E I du Pont de Nemours and Company, priority 2009, dated 2015).

Legend:
Format in all cases: in vivo
[1] = system: umbrella sedge (Cyperus difformis); experiment: Test B flooded paddy test; conditions: for Plant response rating, Flood, Sedge, Umbrella: 250 g ai/ha, flooded paddy test, visual rating on 0 to 100 scale (0 no effect, 100 complete control) after 13 to 15 days; for Plant response rating, Sedge, Umbrella: Flood (flooded paddy test), 13 to 15 days; for Sedge, Umbrella plant response rating: Flood, 31 g ai/ha, scale 0 to 100 (0 no effect, 100 complete control)
How it was run: (§1)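 Seedlings reaching 2 leaves are flooded 3 cm deep; test material is delivered to that water, which stays at the same depth. Plants remain in a greenhouse 13–15 days and are then scored by eye versus controls from 0 to 100.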

[2] = system: barnyardgrass (Echinochloa crus-galli); experiment: Test B flooded paddy test; conditions: for Plant response rating, Flood, Barnyardgrass: 250 g ai/ha, flooded paddy test, visual rating on 0 to 100 scale (0 no effect, 100 complete control) after 13 to 15 days; for Plant response rating, Barnyardgrass: Flood (flooded paddy test), 13 to 15 days; for Barnyardgrass plant response rating: Flood, 31 g ai/ha, scale 0 to 100 (0 no effect, 100 complete control)
How it was run: as §1

[3] = system: ducksalad (Heteranthera limosa); experiment: Test B flooded paddy test; conditions: for Plant response rating, Flood, Ducksalad: 250 g ai/ha, flooded paddy test, visual rating on 0 to 100 scale (0 no effect, 100 complete control) after 13 to 15 days; for Plant response rating, Ducksalad: Flood (flooded paddy test), 13 to 15 days; for Ducksalad plant response rating: Flood, 31 g ai/ha, scale 0 to 100 (0 no effect, 100 complete control)
How it was run: as §1

rice (Oryza sativa) = experiment: Test B flooded paddy test; conditions: for Plant response rating, Flood, Rice: 250 g ai/ha, flooded paddy test, visual rating on 0 to 100 scale (0 no effect, 100 complete control) after 13 to 15 days; for Plant response rating, Rice: Flood (flooded paddy test), 13 to 15 days; for Rice plant response rating: Flood, 31 g ai/ha, scale 0 to 100 (0 no effect, 100 complete control)
How it was run: as §1

[4] = system: velvetleaf (Abutilon theophrasti); experiment: Test A pre-/postemergence plant response; conditions: for Velvetleaf plant response rating: visual injury, 0 to 100 scale (0 no effect, 100 complete control), approx. ten days
How it was run: (§2)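 Pre: directed soil spray on seeded loam/sand blend. Post: same formulation (non-phytotoxic solvent + surfactant) on 2–10 cm plants, 1–2 leaf stage. Greenhouse ~10 d; visual injury score 0–100 vs untreated.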

[5] = system: barnyardgrass (Echinochloa crus-galli); experiment: Test A pre-/postemergence plant response; conditions: for Barnyardgrass plant response rating: visual injury, 0 to 100 scale (0 no effect, 100 complete control), approx. ten days
How it was run: as §2

[6] = system: giant foxtail (Setaria faberii); experiment: Test A pre-/postemergence plant response; conditions: for Foxtail, Giant plant response rating: visual injury, 0 to 100 scale (0 no effect, 100 complete control), approx. ten days
How it was run: as §2

[7] = system: morningglory (Ipomoea spp.); experiment: Test A pre-/postemergence plant response
How it was run: as §2

[8] = system: large crabgrass (Digitaria sanguinalis); experiment: Test A pre-/postemergence plant response; conditions: for Crabgrass, Large plant response rating: visual injury, 0 to 100 scale (0 no effect, 100 complete control), approx. ten days
How it was run: as §2

[9] = system: pigweed (Amaranthus retroflexus); experiment: Test A pre-/postemergence plant response; conditions: for Pigweed plant response rating: visual injury, 0 to 100 scale (0 no effect, 100 complete control), approx. ten days
How it was run: as §2

corn (Zea mays) = experiment: Test A pre-/postemergence plant response; conditions: for Corn plant response rating: visual injury, 0 to 100 scale (0 no effect, 100 complete control), approx. ten days
How it was run: as §2

[10] = system: wheat (Triticum aestivum); experiment: Test A pre-/postemergence plant response; conditions: for Wheat plant response rating: visual injury, 0 to 100 scale (0 no effect, 100 complete control), approx. ten days
How it was run: as §2

[11] = 62 g ai/ha, scale of 0 to 100 where 0 is no effect and 100 is complete control
[12] = 125 g ai/ha, scale 0 to 100, 0 is no effect, 100 is complete control
[13] = Postemergence, 125 g ai/ha, 0 to 100 scale where 0 is no effect and 100 is complete control
[14] = Preemergence, 125 g ai/ha, 0 to 100 scale, 0 = no effect, 100 = complete control
[15] = Preemergence, 500 g ai/ha, 0 to 100 scale, 0 = no effect, 100 = complete control

O=C1CCCC(O)=C1C(=O)c1cnc(-c2cccc(C(F)(F)F)c2)n(C2CCCCC2)c1=O [Compound 195]
Plant response rating, Flood, Sedge, Umbrella [1]: 65 | Plant response rating, Sedge, Umbrella [1, 11]: 0 | Plant response rating, Sedge, Umbrella [1, 12]: 50 | Sedge, Umbrella plant response rating [1]: 0 | Plant response rating, Flood, Barnyardgrass [2]: 20 | Plant response rating, Barnyardgrass [2, 11]: 0 | Plant response rating, Barnyardgrass [2, 12]: 0 | Barnyardgrass plant response rating [2]: 0 | Plant response rating, Flood, Ducksalad [3]: 85 | Plant response rating, Ducksalad [3, 11]: 50 | Plant response rating, Ducksalad [3, 12]: 70 | Ducksalad plant response rating [3]: 0 | Plant response rating, Flood, Rice (rice (Oryza sativa)): 15 | Plant response rating, Rice (rice (Oryza sativa); [11]): 0 | Plant response rating, Rice (rice (Oryza sativa); [12]): 0 | Rice plant response rating (rice (Oryza sativa)): 0 | Plant response rating, Velvetleaf [4, 13]: 100 | Velvetleaf plant response rating ([4]; Postemergence, 500 g ai/ha): 100 | Plant response rating, Velvetleaf [4, 14]: 0 | Plant response rating, Velvetleaf [4, 15]: 50 | Plant response rating, Barnyardgrass [5, 13]: 70 | Barnyardgrass plant response rating ([5]; Postemergence, 500 g ai/ha): 90 | Plant response rating, Barnyardgrass [5, 14]: 0 | Plant response rating, Barnyardgrass [5, 15]: 10 | Plant response rating, Foxtail, Giant [6, 13]: 30 | Foxtail, Giant plant response rating ([6]; Postemergence, 500 g ai/ha): 70 | Plant response rating, Foxtail, Giant [6, 14]: 0 | Plant response rating, Foxtail, Giant [6, 15]: 30 | Plant response rating, Morningglory [7, 13]: 60 | Plant response rating, Morningglory [7, 14]: 0 | Plant response rating, Morningglory [7, 15]: 0 | Plant response rating, Crabgrass, Large [8, 13]: 40 | Crabgrass, Large plant response rating ([8]; Postemergence, 500 g ai/ha): 90 | Plant response rating, Crabgrass, Large [8, 14]: 0 | Plant response rating, Crabgrass, Large [8, 15]: 50 | Plant response rating, Pigweed [9, 13]: 90 | Pigweed plant response rating ([9]; Postemergence, 500 g ai/ha): 100 | Plant response rating, Pigweed [9, 14]: 0 | Plant response rating, Pigweed [9, 15]: 10 | Plant response rating, Corn (corn (Zea mays); [13]): 0 | Corn plant response rating (corn (Zea mays); Postemergence, 500 g ai/ha): 20 | Plant response rating, Corn (corn (Zea mays); [14]): 0 | Plant response rating, Corn (corn (Zea mays); [15]): 0 | Plant response rating, Wheat [10, 13]: 0 | Wheat plant response rating ([10]; Postemergence, 500 g ai/ha): 0 | Plant response rating, Wheat [10, 14]: 0 | Plant response rating, Wheat [10, 15]: 20

O=C1CCCC(O)=C1C(=O)c1cnc(-c2cccc(F)c2)n(-c2ccccc2)c1=O [Compound 199]
Plant response rating, Flood, Sedge, Umbrella [1]: 85 | Plant response rating, Sedge, Umbrella [1, 11]: 70 | Plant response rating, Sedge, Umbrella [1, 12]: 75 | Sedge, Umbrella plant response rating [1]: 60 | Plant response rating, Flood, Barnyardgrass [2]: 25 | Plant response rating, Barnyardgrass [2, 11]: 0 | Plant response rating, Barnyardgrass [2, 12]: 15 | Barnyardgrass plant response rating [2]: 0 | Plant response rating, Flood, Ducksalad [3]: 90 | Plant response rating, Ducksalad [3, 11]: 85 | Plant response rating, Ducksalad [3, 12]: 85 | Ducksalad plant response rating [3]: 85 | Plant response rating, Flood, Rice (rice (Oryza sativa)): 0 | Plant response rating, Rice (rice (Oryza sativa); [11]): 0 | Plant response rating, Rice (rice (Oryza sativa); [12]): 0 | Rice plant response rating (rice (Oryza sativa)): 0 | Plant response rating, Velvetleaf [4, 13]: 100 | Velvetleaf plant response rating ([4]; Postemergence, 500 g ai/ha): 100 | Plant response rating, Velvetleaf [4, 14]: 90 | Plant response rating, Velvetleaf [4, 15]: 100 | Plant response rating, Barnyardgrass [5, 13]: 90 | Barnyardgrass plant response rating ([5]; Postemergence, 500 g ai/ha): 100 | Plant response rating, Barnyardgrass [5, 14]: 20 | Plant response rating, Barnyardgrass [5, 15]: 90 | Plant response rating, Foxtail, Giant [6, 13]: 100 | Foxtail, Giant plant response rating ([6]; Postemergence, 500 g ai/ha): 100 | Plant response rating, Foxtail, Giant [6, 14]: 60 | Plant response rating, Foxtail, Giant [6, 15]: 90 | Plant response rating, Morningglory [7, 13]: 100 | Morningglory plant response rating ([7]; Postemergence, 500 g ai/ha, visual injury, 0 to 100 scale (0 no effect, 100 complete control), approx. ten days): 100 | Plant response rating, Morningglory [7, 14]: 70 | Plant response rating, Morningglory [7, 15]: 80 | Plant response rating, Crabgrass, Large [8, 13]: 70 | Crabgrass, Large plant response rating ([8]; Postemergence, 500 g ai/ha): 100 | Plant response rating, Crabgrass, Large [8, 14]: 60 | Plant response rating, Crabgrass, Large [8, 15]: 100 | Plant response rating, Pigweed [9, 13]: 100 | Pigweed plant response rating ([9]; Postemergence, 500 g ai/ha): 100 | Plant response rating, Pigweed [9, 14]: 80 | Plant response rating, Pigweed [9, 15]: 100 | Plant response rating, Corn (corn (Zea mays); [13]): 0 | Corn plant response rating (corn (Zea mays); Postemergence, 500 g ai/ha): 50 | Plant response rating, Corn (corn (Zea mays); [14]): 20 | Plant response rating, Corn (corn (Zea mays); [15]): 30 | Plant response rating, Wheat [10, 13]: 0 | Wheat plant response rating ([10]; Postemergence, 500 g ai/ha): 10 | Plant response rating, Wheat [10, 14]: 0 | Plant response rating, Wheat [10, 15]: 20
